# In patent US20240382466A1, “PHARMACEUTICAL COMPOSITION FOR PREVENTING OR TREATING ALZHEIMER’S DISEASE” (priority 2021, published 2024):
# Key:
# [1] = system: mice in a model of Alzheimer's disease; test: Eight-arm maze behavioral experiment in D-galactose/AlCl3 mouse model of Alzheimer's disease; assay type: in vivo, Kunming mice; conditions: 8 weeks, x ± s, n = 10
# Text: A food providing device is arranged at an end of each arm of an eight-arm maze. The spatial memory ability of an experimental animal may be reflected according to the strategy of analyzing feeding of an animal, namely the parameters of the times, time, correct times, wrong times, routes and the like of entering each arm. In contrast, the eight-arm maze is simple, convenient and feasible to operate, can distinguish short-term working memory from long-term reference memory, and is widely used for evaluating a learning and memory cognitive experiment. The main analysis indexes of the eight-arm maze are name, grouping, working memory error latency, reference memory error latency, total correct times, total arm entering times, working memory error times, reference memory error times, correct latency, correct rate, working memory error rate, reference memory error rate, correct times before first error, test time, a track graph and the like. […] 100 SPF-grade Kunming mice, each half male and female, weighed 20-22 g, were provided by the Jinan Pengyue Experimental Animal Breeding Co., Ltd with the animal certificate number: SCXK(Lu)20190003. The mice were bred to freely drink and eat in an SPF-grade animal breeding room with strictly controlled environmental conditions: the temperature of 20-26° C., the humidity of 40-70%, the light and dark cycle of 12 h:12 h, and a growing and breeding feed. All mice were first trained in an eight-arm maze which was a common model for evaluating the learning and memory ability of an animal. The animals were adaptively fed for 1 week, weighed, and fasted for 24 hours. Then after each day of training, the mice were restrictively given a normal diet to maintain the body weight of the mice between 80% and 85% of that of mice fed normally. On the second day, food particles (4-5 particles each arm with the diameter of about 3-4 mm) were sprayed in each arm and a center area of the maze. Then 4 animals were placed in the center of the maze simultaneously (doors to each arm were opened). The animals were freely fed and explored for 10 min. On the third day, the training of the second day was repeated. This process allowed the animals to become familiar with the maze environment without very strong stress. On the fourth day, the animals were trained individually: one food particle was placed in each arm near an outer food box and the animals ate freely. The animals were removed after the food particles were consumed or 10 min later. On the fifth day, the food was placed in the food box and the previous day of training was repeated 2 times a day. After the sixth day, 4 arms were randomly selected and one food particle was placed in each arm; each arm door was closed and the animals were placed in the center of the maze; and after 30s, the arm door was opened, the animals moved freely in the maze and took the food particle until the animals ate the food particles of all 4 arms. If the food particles were not eaten up after 10 min, the experiment was terminated. The animals were trained twice a day with the interval of 1 h or more. […] The mice meeting the learning standard were screened, 10 of them were randomly selected as a normal group, 10 as a model group, and the others as experimental groups. Except that the mice in the normal group were intraperitoneally injected with the same amount of normal saline and intragastrically administrated with the same amount of double distilled water, the mice of the other groups were all intraperitoneally injected with D-galactose (500 mg/kg/D) (prepared with normal saline) and intragastrically administrated AlCl3 (20 mg/kg/D) (prepared with double distilled water). The mice in the experimental groups were intragastrically administrated once a day according to the grouping and administration dose and the mice in the normal group and the model group were intragastrically administrated with the same amount of purified water for 8 weeks successively. […]
# [2] = system: mice in a model of Alzheimer's disease; test: Contents of tryptophan, L-kynurenine and 5-hydroxytryptamine in serum by high performance liquid chromatography; assay type: in vivo, Kunming mice; conditions: 8 weeks, x ± s, n = 10
# Procedure: 100 SPF-grade Kunming mice, each half male and female, weighed 20-22 g, were provided by the Jinan Pengyue Experimental Animal Breeding Co., Ltd with the animal certificate number: SCXK(Lu)20190003. The mice were bred to freely drink and eat in an SPF-grade animal breeding room with strictly controlled environmental conditions: the temperature of 20-26° C., the humidity of 40-70%, the light and dark cycle of 12 h:12 h, and a growing and breeding feed. The mice meeting the learning standard were screened, 10 of them were randomly selected as a normal group, 10 as a model group, and the others as experimental groups. Except that the mice in the normal group were intraperitoneally injected with the same amount of normal saline and intragastrically administrated with the same amount of double distilled water, the mice of the other groups were all intraperitoneally injected with D-galactose (500 mg/kg/D) (prepared with normal saline) and intragastrically administrated AlCl3 (20 mg/kg/D) (prepared with double distilled water). The mice in the experimental groups were intragastrically administrated once a day according to the grouping and administration dose and the mice in the normal group and the model group were intragastrically administrated with the same amount of purified water for 8 weeks successively. The mice in the experimental groups were divided into 8 groups of low- and high-dose anhydroicaritin groups, low- and high-dose compound I groups, and composition A, B, C, and D groups with 10 mice in each group. […] After the last administration, […] of blood was taken from each eyeball of each group of the mice subjected to the eight-arm maze test and stood overnight at 4° C. in a test tube, and a supernatant was taken the following day for later use. The contents of tryptophan, L-kynurenine, and 5-hydroxytryptamine in blood serum were detected by a high performance liquid chromatography.
# GSK-3 = conditions: cited from earlier work
# microglia = conditions: Alzheimer's disease inflammation model; cited from earlier work
# [3] = high-dose compound I group, 32 mg/(kg·d) intragastric once a day
# [4] = low-dose compound I group, 0.6 mg/(kg·d) intragastric once a day
# [5] = high-dose compound I group, 32 mg/(kg·d) intragastric
# [6] = low-dose compound I group, 0.6 mg/(kg·d) intragastric
# [7] = high-dose anhydroicaritin group, 21.2 mg/(kg·d) intragastric once a day
# [8] = low-dose anhydroicaritin group, 3.2 mg/(kg·d) intragastric once a day
# [9] = high-dose anhydroicaritin group, 21.2 mg/(kg·d) intragastric
# [10] = low-dose anhydroicaritin group, 3.2 mg/(kg·d) intragastric
smiles,measurement,setting,value
N=C(N)NCCNc1nonc1/C(=N/O)Nc1ccc(F)c(Br)c1 [compound I],Average exploration time (s),[1]; [3],189.95 ± 1.04^+ s
same,Reference memory error frequency,[1]; [3],0.21 ± 0.04^+
same,Working memory error frequency,[1]; [3],0.44 ± 0.05^+
same,Average exploration time (s),[1]; [4],190.20 ± 1.09^+ s
same,Reference memory error frequency,[1]; [4],0.23 ± 0.05^+
same,Working memory error frequency,[1]; [4],0.52 ± 0.03^++
same,5-hydroxytryptamine (μg/ml),[2]; [5],1.28 ± 0.05^+ μg/ml
same,L-kynurenine (μg/ml),[2]; [5],0.33 ± 0.01^+ μg/ml
same,Tryptophan (μg/ml),[2]; [5],18.08 ± 0.02^+ μg/ml
same,5-hydroxytryptamine (μg/ml),[2]; [6],1.29 ± 0.05^+ μg/ml
same,L-kynurenine (μg/ml),[2]; [6],0.35 ± 0.03^+ μg/ml
same,Tryptophan (μg/ml),[2]; [6],17.92 ± 0.95^+ μg/ml
COc1ccc(-c2oc3c(CC=C(C)C)c(O)cc(O)c3c(=O)c2O)cc1 [anhydroicaritin],Average exploration time (s),[1]; [7],189.81 ± 1.19^+ s
same,Reference memory error frequency,[1]; [7],0.20 ± 0.04^+
same,Working memory error frequency,[1]; [7],0.44 ± 0.06^+
same,Average exploration time (s),[1]; [8],190.17 ± 1.18^+ s
same,Reference memory error frequency,[1]; [8],0.21 ± 0.03^+
same,Working memory error frequency,[1]; [8],0.45 ± 0.02^+
same,5-hydroxytryptamine (μg/ml),[2]; [9],1.30 ± 0.07^+ μg/ml
same,L-kynurenine (μg/ml),[2]; [9],0.33 ± 0.02^+ μg/ml
same,Tryptophan (μg/ml),[2]; [9],17.90 ± 0.30^+ μg/ml
same,5-hydroxytryptamine (μg/ml),[2]; [10],1.29 ± 0.05^+ μg/ml
same,L-kynurenine (μg/ml),[2]; [10],0.33 ± 0.01^+ μg/ml
same,Tryptophan (μg/ml),[2]; [10],17.79 ± 0.65^+ μg/ml
COc1ccc(-c2oc3c(CC=C(C)C)c(O)cc(O)c3c(=O)c2O)cc1 [icaritin],GSK-3 activity,GSK-3,inhibiting GSK-3 activity
same,activation of microglia induced by LPS,microglia,inhibit excessive activation of microglia induced by LPS
same,learning and memory ability of mice,microglia,improve the learning and memory ability of mice
